Reference: PubChem BioAssay AID248 (DTP/NCI, 2004)
Several values for one entry are separate records, joined by “and”; a condition that tells them apart may be missing. Equal entries are not always repeated. Inconclusive results and toxic doses are left out. No stated cut-off is given here; in the data, active means T/C of 150% or more; inactive means T/C below 125%.

Tested on: L1210 leukemia ip in BDF1 mice, survival T/C
Assay: NCI In Vivo Anticancer Drug Screen. Data for tumor model L1210 Leukemia (intraperitoneal) in B6D2F1 (BDF1) mice
Details: endpoint: mean survival time, higher = longer survival
How it was run: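 Value reflects the ratio of survival in compound-treated mice to survival in vehicle-treated controls, with both groups carrying the same transplanted tumor.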

[1] = dose: 50.0 mg/kg/injection, schedule: Q01DX009 (ip), vehicle: saline with Tween-80
[2] = dose: 100.0 mg/kg/injection, schedule: Q01DX009 (ip), vehicle: saline with Tween-80
[3] = dose: 200.0 mg/kg/injection, schedule: Q01DX009 (ip), vehicle: saline with Tween-80
[4] = dose: 100.0 mg/kg/injection, schedule: Q04DX003 (ip), vehicle: saline with Tween-80
[5] = dose: 200.0 mg/kg/injection, schedule: Q04DX003 (ip), vehicle: saline with Tween-80
[6] = dose: 400.0 mg/kg/injection, schedule: Q04DX003 (ip), vehicle: saline with Tween-80
[7] = dose: 100.0 mg/kg/injection, schedule: Q01DX001 (ip), vehicle: saline
[8] = dose: 200.0 mg/kg/injection, schedule: Q01DX001 (ip), vehicle: saline
[9] = dose: 100.0 mg/kg/injection, schedule: Q04DX002 (ip), vehicle: saline with Tween-80
[10] = dose: 200.0 mg/kg/injection, schedule: Q04DX002 (ip), vehicle: saline with Tween-80
[11] = dose: 400.0 mg/kg/injection, schedule: Q01DX001 (ip), vehicle: saline

Measured: T/C

COc1ccc(N(N=O)C(C)C)cc1
inactive: dose: 12.5 mg/kg/injection, schedule: Q01DX009 (ip), vehicle: saline with Tween-80 87 % of control | dose: 25.0 mg/kg/injection, schedule: Q01DX009 (ip), vehicle: saline with Tween-80 94 % of control | [1] 87 % of control | [2] 89 % of control | [3] 92 % of control

CN1CCN(Cc2cc(Cl)c3cccnc3c2O)CC1
inactive: dose: 75.0 mg/kg/injection, schedule: Q01DX001 (ip), vehicle: saline 100 % of control | dose: 150.0 mg/kg/injection, schedule: Q01DX001 (ip), vehicle: saline 106 % of control

CCC(CO)(CO)[N+](=O)[O-]
inactive: [4] 95 % of control | [5] 91 % of control | [6] 91 % of control

C(=N\Nc1nnn(Cc2ccccc2)n1)/c1ccccc1
inactive: [2] 95 % of control | [4] 110 % of control | [3] 102 % of control | [5] 102 % of control | dose: 400.0 mg/kg/injection, schedule: Q01DX009 (ip), vehicle: saline with Tween-80 93 % of control | [6] 90 % of control

O=C(O)c1cccc(CCc2cccnc2)c1
inactive: dose: 100.0 mg/kg/injection, schedule: Q01DX001 (ip), vehicle: saline with Tween-80 98 % of control | dose: 200.0 mg/kg/injection, schedule: Q01DX001 (ip), vehicle: saline with Tween-80 101 % of control | dose: 400.0 mg/kg/injection, schedule: Q01DX001 (ip), vehicle: saline with Tween-80 93 % of control

CCCN(CCC)CCCC#N
inactive: [4] 95 % of control | [5] 93 % of control

Cn1cc(C(O)CN2CCCCC2)c2ccccc21 (stereo not drawn)
inactive: dose: 25.0 mg/kg/injection, schedule: Q04DX003 (ip), vehicle: saline with Tween-80 104 % of control | dose: 50.0 mg/kg/injection, schedule: Q04DX003 (ip), vehicle: saline with Tween-80 97 % of control

c1ccc2c(c1)Cc1cc3ccccc3cc1-2
inactive: dose: 50.0 mg/kg/injection, schedule: Q01DX001 (ip), vehicle: gum acacia 94 % of control | dose: 100.0 mg/kg/injection, schedule: Q01DX001 (ip), vehicle: gum acacia 95 % of control | dose: 200.0 mg/kg/injection, schedule: Q01DX001 (ip), vehicle: gum acacia 94 % of control

CCOP(=S)(S)OCC.[Ni]
inactive: dose: 50.0 mg/kg/injection, schedule: Q01DX001 (ip), vehicle: saline 93 % of control | [7] 102 % of control | [8] 100 % of control

CCCCCCCCCCCc1cccc2ccccc12
inactive: dose: 50.0 mg/kg/injection, schedule: Q04DX002 (ip), vehicle: saline with Tween-80 92 % of control | [9] 89 % of control | [10] 92 % of control | dose: 400.0 mg/kg/injection, schedule: Q04DX002 (ip), vehicle: saline with Tween-80 95 % of control

CCCCN(CCCC)CCN(CCCC)CCN(CCCC)CCCC
inactive: dose: 25.0 mg/kg/injection, schedule: Q04DX003 (ip), vehicle: saline 103 % of control | dose: 50.0 mg/kg/injection, schedule: Q04DX003 (ip), vehicle: saline 98 % of control | dose: 100.0 mg/kg/injection, schedule: Q04DX003 (ip), vehicle: saline 98 % of control and 89 % of control

CN(C)C(=S)N(C(=S)N(C)C)c1ccccc1
inactive: [7] 95 % of control | [8] 103 % of control | [11] 108 % of control

CCCCOC(=O)c1[nH]cnc1/N=N/N(C)CCCC
inactive: dose: 100.0 mg/kg/injection, schedule: Q01DX001 (ip), vehicle: other 112 % of control | dose: 200.0 mg/kg/injection, schedule: Q01DX001 (ip), vehicle: other 120 % of control

Cc1ccc(CNC(=O)Nc2c(C)cccc2C)cc1C
inactive: dose: 100.0 mg/kg/injection, schedule: Q04DX002 (ip), vehicle: Klucel (hydroxypropylcellulose) (HPC) 102 % of control | dose: 200.0 mg/kg/injection, schedule: Q04DX002 (ip), vehicle: Klucel (hydroxypropylcellulose) (HPC) 108 % of control | dose: 400.0 mg/kg/injection, schedule: Q04DX002 (ip), vehicle: Klucel (hydroxypropylcellulose) (HPC) 97 % of control

O=C(CSc1cc(Cl)ccc1Cl)Nc1ccc(Cl)cc1Cl
inactive: dose: 100.0 mg/kg/injection, schedule: Q04DX003 (ip), vehicle: carboxymethylcellulose (CMC) 92 % of control | dose: 200.0 mg/kg/injection, schedule: Q04DX003 (ip), vehicle: carboxymethylcellulose (CMC) 95 % of control

Nc1nc(N)c2nc(CNc3ccc(C(=O)NCC(=O)O)cc3)cnc2n1
inactive: dose: 5.0 mg/kg/injection, schedule: Q01DX009 (ip), vehicle: Klucel (hydroxypropylcellulose) (HPC) 93 % of control | dose: 10.0 mg/kg/injection, schedule: Q01DX009 (ip), vehicle: Klucel (hydroxypropylcellulose) (HPC) 101 % of control | dose: 20.0 mg/kg/injection, schedule: Q01DX009 (ip), vehicle: Klucel (hydroxypropylcellulose) (HPC) 109 % of control | dose: 40.0 mg/kg/injection, schedule: Q01DX009 (ip), vehicle: Klucel (hydroxypropylcellulose) (HPC) 105 % of control

CC(C)SCC(N)CO (stereo not drawn)
inactive: dose: 12.5 mg/kg/injection, schedule: Q01DX009 (ip), vehicle: water 96 % of control | dose: 25.0 mg/kg/injection, schedule: Q01DX009 (ip), vehicle: water 96 % of control and 117 % of control | dose: 50.0 mg/kg/injection, schedule: Q01DX009 (ip), vehicle: water 99 % of control and 120 % of control | dose: 100.0 mg/kg/injection, schedule: Q01DX009 (ip), vehicle: water 100 % of control and 104 % of control | dose: 200.0 mg/kg/injection, schedule: Q01DX009 (ip), vehicle: water 108 % of control

O=S(c1ccccc1)C1CCCCC1O (stereo not drawn)
inactive: [9] 108 % of control | [10] 118 % of control

CCCC/C(=N\OC(=O)N(C)C)c1ccccc1
inactive: [7] 103 % of control | [8] 98 % of control | [11] 98 % of control

O=[N+]([O-])c1cc([N+](=O)[O-])c(Nn2c3ccccc3c3ccccc32)c([N+](=O)[O-])c1
inactive: dose: 6.25 mg/kg/injection, schedule: Q01DX009 (ip), vehicle: Klucel (hydroxypropylcellulose) (HPC) 103 % of control | dose: 12.5 mg/kg/injection, schedule: Q01DX009 (ip), vehicle: Klucel (hydroxypropylcellulose) (HPC) 104 % of control and 87 % of control | dose: 25.0 mg/kg/injection, schedule: Q01DX009 (ip), vehicle: Klucel (hydroxypropylcellulose) (HPC) 100 % of control and 102 % of control | dose: 25.0 mg/kg/injection, schedule: Q04DX003 (ip), vehicle: Klucel (hydroxypropylcellulose) (HPC) 107 % of control | dose: 50.0 mg/kg/injection, schedule: Q01DX009 (ip), vehicle: Klucel (hydroxypropylcellulose) (HPC) 96 % of control | dose: 50.0 mg/kg/injection, schedule: Q04DX003 (ip), vehicle: Klucel (hydroxypropylcellulose) (HPC) 95 % of control | dose: 100.0 mg/kg/injection, schedule: Q01DX009 (ip), vehicle: Klucel (hydroxypropylcellulose) (HPC) 94 % of control | dose: 100.0 mg/kg/injection, schedule: Q04DX003 (ip), vehicle: Klucel (hydroxypropylcellulose) (HPC) 92 % of control and 96 % of control | dose: 200.0 mg/kg/injection, schedule: Q04DX003 (ip), vehicle: Klucel (hydroxypropylcellulose) (HPC) 94 % of control and 87 % of control | dose: 400.0 mg/kg/injection, schedule: Q04DX003 (ip), vehicle: Klucel (hydroxypropylcellulose) (HPC) 102 % of control

CC(=O)Nc1ncc([N+](=O)[O-])s1
inactive: [1] 97 % of control | [2] 98 % of control | [3] 104 % of control
